# Key:
# [1] = HepG2 cytotoxicity assay; format: cell-based; conditions: human
# [2] = test system: Plasmodium falciparum, Strain D6; experiment: In vitro antiplasmodial activity, fluorescence-based SYBR Green assay, strain D6; format: cell-based; conditions: D6, 72 h, read-out: IC50 v D6 ± SD
# [3] = test system: Plasmodium yoelii; experiment: In vivo parasite suppression at fixed dose, modified 4-day Peters test; set-up: species or system Plasmodium yoelii (female CF1 mice); conditions: for inhibition in vivo at 2.5 mg/kg: Plasmodium yoelii, in Mus musculus, po, 120 h, read-out: % Py Suppression; for % Py Suppression: 2.5 mg/kg/d oral, Days 1-4, parasitemia Day 5 vs vehicle control, n = 4
# [4] = test system: Plasmodium yoelii; experiment: In vivo efficacy; set-up: species or system Plasmodium yoelii (female CF1 mice); conditions: oral once daily for 4 days, parasitemia Day 5
# [5] = Murine microsomal stability; format: in vitro ADME
# [6] = test system: Plasmodium yoelii; experiment: Single dose cure; format: in vivo, Plasmodium yoelii (female CF1 mice); conditions: single oral dose Day 1, 0% parasitemia until Day 30
# [7] = mouse, pooled liver microsomes, pH 7.4
Structure (SMILES),CC50 at 24 h ([1]; HepG2 cells) [µM],inhibition in vivo at 2.5 mg/kg [3] [%],"CLint scaled at 1 μM [5, 7] [mL/min/kg]",also measured
"FC(F)(F)Oc1ccc(-c2cnc3cc(Cl)ccc3c2Nc2ccc(N3CCOCC3)cc2)cc1 [Compound 8, 7-chloro-N-(4-morpholinophenyl)-3-(4-(trifluoromethoxy)phenyl)quinolin-4-amine]",> 200,,,
"Clc1ccc2c(Nc3ccc(N4CCCCC4)cc3)ccnc2c1 [Compound 34, 7-chloro-N-(4-(piperidin-1-yl)phenyl)quinolin-4-amine]",> 200,,,
"CCN(CC)CCCC(C)Nc1ccnc2cc(Cl)ccc12 (centres unmarked) [Compound 1, chloroquine]",,,,IC50 [2]: 0.0096 ± 0.002 µM
"CC(C)(C)OC(=O)N1CCN(c2ccc(Nc3ccnc4cc(Cl)ccc34)cc2)CC1 [Compound 36, tert-butyl 4-(4-((7-chloroquinolin-4-yl)amino)phenyl)piperazine-1-carboxylate]",> 200,,,
"CCN1CCN(c2ccc(Nc3ccnc4cc(Cl)ccc34)cc2)CC1 [Compound 20, 7-chloro-N-(4-(4-ethylpiperazin-1-yl)phenyl)quinolin-4-amine]",> 200,60,2930,ED50 v Py [4]: 1.5 mg/kg/day; ED90 v Py [4]: 8.4 mg/kg/day
"Clc1ccc2c(Nc3ccc(N4CCOCC4)cc3)ccnc2c1 [Compound 7, 7-chloro-N-(4-morpholinophenyl)quinolin-4-amine]",> 200,,,
"FC(F)(F)Oc1ccc(-c2cnc3cc(Cl)ccc3c2Nc2ccc(C3CN(Cc4ccccc4)CCO3)cc2)cc1 (centres unmarked) [Compound 16, N-(4-(4-benzylmorpholin-2-yl)phenyl)-7-chloro-3-(4-(trifluoromethoxy)phenyl)quinolin-4-amine]",> 200,,,
"CCN1CCN(c2ccc(Nc3ccnc4cc(Br)ccc34)cc2)CC1 [Compound 25, 7-bromo-N-(4-(4-ethylpiperazin-1-yl)phenyl)quinolin-4-amine]",48,,,
"Clc1ccc2c(Nc3ccc(N4CCN(C5CC5)CC4)cc3)ccnc2c1 [Compound 33, 7-chloro-N-(4-(4-cyclopropylpiperazin-1-yl)phenyl)quinolin-4-amine]",> 200,,,
"CCCN1CCC(c2ccc(Nc3ccnc4cc(Cl)ccc34)cc2)CC1 [Compound 41, 7-chloro-N-(4-(1-propylpiperidin-4-yl)phenyl)quinolin-4-amine]",> 200,39,78,% Py Suppression [3]: 39%
"CCN1CCN(c2ccc(Nc3ccnc4cc(Cl)c(Cl)cc34)cc2)CC1 [Compound 24, 6,7-dichloro-N-(4-(4-ethylpiperazin-1-yl)phenyl)quinolin-4-amine]",> 200,,,
"CC(C)CN1CCN(c2ccc(Nc3ccnc4cc(Cl)ccc34)cc2)CC1 [Compound 45, 7-chloro-N-(4-(4-isobutylpiperazin-1-yl)phenyl)quinolin-4-amine]",> 200,,843,"% Py Suppression [3]: 30%; half-life at 1 μM [5, 7]: 6.47 min"
"CC(C)N1CCC(c2ccc(Nc3ccnc4cc(Cl)ccc34)cc2)CC1 [Compound 35, 7-chloro-N-(4-(1-isopropylpiperidin-4-yl)phenyl)quinolin-4-amine]",> 200,48,124,ED50 v Py [4]: 1.1 mg/kg/day; ED90 v Py [4]: 4.1 mg/kg/day
"FC(F)(F)c1ccc(N2CCN(c3ccc(Nc4ccnc5cc(Cl)ccc45)cc3)CC2)cc1 [Compound 32, 7-chloro-N-(4-(4-(4-(trifluoromethyl)phenyl)piperazin-1-yl)phenyl)quinolin-4-amine]",> 200,,,
"CCN1CCN(c2ccc(Nc3ccnc4cc(C(F)(F)F)ccc34)cc2)CC1 [Compound 26, N-(4-(4-ethylpiperazin-1-yl)phenyl)-7-(trifluoromethyl)quinolin-4-amine]",> 200,,,
"CCCCN1CCC(c2ccc(Nc3ccnc4cc(Cl)ccc34)cc2)CC1 [Compound 42, N-(4-(1-butylpiperidin-4-yl)phenyl)-7-chloroquinolin-4-amine]",> 200,53,130,
"Clc1ccc2c(Nc3ccc(C4CCNCC4)cc3)ccnc2c1 [Compound 39, 7-chloro-N-(4-(piperidin-4-yl)phenyl)quinolin-4-amine]",58,,,
"CC(C)(C)N1CCN(c2ccc(Nc3ccnc4cc(Cl)ccc34)cc2)CC1 [Compound 31, N-(4-(4-(tert-butyl)piperazin-1-yl)phenyl)-7-chloroquinolin-4-amine]",> 200,30,,"ED50 v Py [4]: 4.0 mg/kg/day; ED90 v Py [4]: 7.6 mg/kg/day; t1/2 (microsomal stability) ([5]; pooled murine liver microsomes, 1 μM, 0.5 mg/mL protein, 37 °C, 1 h): ∞; compound metabolized over the course of the microsomal experiment ([5]; pooled murine liver microsomes, 1 h): no detectable amount of compound was metabolized"
"CN1CCN(c2ccc(Nc3ccnc4cc(Cl)ccc34)cc2)CC1 [Compound 21, 7-chloro-N-(4-(4-methylpiperazin-1-yl)phenyl)quinolin-4-amine]",,,3780,
"CCN1CCOCC1c1ccc(Nc2ccnc3cc(Cl)ccc23)cc1 (centres unmarked) [Compound 13, 7-chloro-N-(4-(4-ethylmorpholin-3-yl)phenyl)quinolin-4-amine]",> 200,,,
"Clc1ccc2c(Nc3ccc(C4COCCN4Cc4ccccc4)cc3)ccnc2c1 (centres unmarked) [Compound 12, N-(4-(4-benzylmorpholin-3-yl)phenyl)-7-chloroquinolin-4-amine]",> 200,,,
"CC(C)CN1CCC(c2ccc(Nc3ccnc4cc(Cl)ccc34)cc2)CC1 [Compound 43, 7-chloro-N-(4-(1-isobutylpiperidin-4-yl)phenyl)quinolin-4-amine]",,91,,% Py Suppression [3]: 91%; CC50 at 24 h [1]: > 200 µM; SDC (single dose cure) [6]: 50 mg/kg
"Clc1ccc2c(Nc3ccc(C4CN(Cc5ccccc5)CCO4)cc3)ccnc2c1 (centres unmarked) [Compound 15, N-(4-(4-benzylmorpholin-2-yl)phenyl)-7-chloroquinolin-4-amine]",38,,,
"CCN1CCOCC1c1ccc(Nc2c(-c3ccc(OC(F)(F)F)cc3)cnc3cc(Cl)ccc23)cc1 (centres unmarked) [Compound 14, 7-chloro-N-(4-(4-ethylmorpholin-3-yl)phenyl)-3-(4-(trifluoromethoxy)phenyl)quinolin-4-amine]",> 200,,,
"CCC(C)N1CCC(c2ccc(Nc3ccnc4cc(Cl)ccc34)cc2)CC1 (centres unmarked) [Compound 44, N-(4-(1-(sec-butyl)piperidin-4-yl)phenyl)-7-chloroquinolin-4-amine]",> 200,71,98.3,
"Clc1ccc2c(Nc3ccc(N4CCN(Cc5ccccc5)CC4)cc3)ccnc2c1 [Compound 17, N-(4-(4-benzylpiperazin-1-yl)phenyl)-7-chloroquinolin-4-amine]",> 200,0,392,
"Clc1ccc2c(Nc3ccc(N4CCNCC4)cc3)ccnc2c1 [Compound 38, 7-chloro-N-(4-(piperazin-1-yl)phenyl)quinolin-4-amine]",54,,,
"CCN1CCC(c2ccc(Nc3ccnc4cc(Cl)ccc34)cc2)CC1 [Compound 40, 7-chloro-N-(4-(1-ethylpiperidin-4-yl)phenyl)quinolin-4-amine]",,13,497,ED50 v Py [4]: 1.8 mg/kg/day; ED90 v Py [4]: 13 mg/kg/day
